{"source": "patent US20060178307A1", "about": "“Modulation of NMDA receptor currents via orexin receptor and/or CRF receptor” (priority 2005, published 2006)", "key": {"[1]": {"test_system": "NMDAR-mediated currents in VTA dopamine cells", "test": "CRF-related peptides on NMDAR-mediated currents at excitatory synapses onto VTA dopamine cells", "format": "cell-based", "conditions": "mammalian brain"}, "NMDAR eEPSCs": {"test_system": "NMDAR eEPSCs", "conditions": "cited from earlier work"}, "10% ethanol consumption": {"test_system": "10% ethanol consumption", "test": "Voluntary ethanol consumption, limited-access two-bottle choice, icv infusion", "format": "in vivo, Long Evans rats", "conditions": "5 μg ICV, n=14", "method": "Agents in these in vivo studies were administered to either the lateral ventricle (icv) or ventral tegmental area (VTA) in rats by cannulae, which were implanted as follows. One week after the rats achieved baseline drinking and lever pressing levels in the 2-bottle choice and ethanol self-administration paradigms described below, they were anesthetized with 75 mg/kg pentobarbital sodium and placed in a stereotaxic frame. The head was shaved and scrubbed with an antiseptic solution of betadine/2% H2O2, followed by 2.5% topical xylocalne jelly. The skull was exposed and two to three holes were drilled for implantation of sterile miniature skull screws (⅛″, Small Parts, Inc.). […]\nThese experiments test the effects of the CRF system on voluntary ethanol consumption using a limited-access paradigm. […] Animal weights were measured daily in order to calculate the gram per kilogram intake. Ethanol preference (%) was calculated as the grams of ethanol consumed divided by the total fluid consumption (grams of ethanol+grams of water). The data was corrected for evaporation and spillage by subtracting the mean fluid loss measured in four drinking tubes placed on empty cages. […]\nThe effects of CRF (5 μg) and the CRF inhibitor CRF (6-33) (5 μg) on limited access (30 min) 10% ethanol drinking were measured using a limited-access two-bottle choice procedure."}}, "note": "Entries after “also recorded” stand apart in the source; their conditions may differ. Where no end group is shown, it is not given here.", "data": [{"substance": "CRF: Corticotrophin-releasing factor, a 41 amino acid peptide; direct CRF receptor agonist (SEEPPISLDLTFHLLREVLEMARAEQLAQQAHSNRKLMEII; ends and bridges not checked; UniProt P06850 154-194, looked up)", "values": [{"measurement": "potentiation of NMDAR currents", "setting": "[1]", "value": "increases"}, {"measurement": "potentiation of NMDARs", "setting": "NMDAR eEPSCs; 10 nM CRF, mice", "value": "no potentiation"}, {"measurement": "NMDAR eEPSCs, concentration dependent", "setting": "NMDAR eEPSCs; mice (FIG. 13)", "value": "increased"}]}, {"substance": "CRF (6-33): indirect CRF receptor antagonist that acts by displacing CRF from CRF-BP (ISLDLTFHLLREVLEMARAEQLAQQAHS; Corticoliberin; UniProt P06850 159-186, looked up, fragment)", "values": [{"measurement": "10% ethanol consumption", "setting": "10% ethanol consumption; limited access, compared to CRF alone", "value": "significantly reduced"}, {"measurement": "water consumption", "setting": "10% ethanol consumption", "value": "no effect; also recorded: did not reduce"}]}]}
